Values quoted from earlier work in patent US12673067B2, “Methods, agents, and devices for local neuromodulation of autonomic nerves” (Tulavi Therapeutics, Inc., priority 2016, dated 2026).
Read-outs that look alike come from different tables or passages of the source. Values belong to the compound of their own block, whether it stands above or below them.

Experiments:
GPR120 = target: T1, GPR120 (Homo sapiens, UniProt Q5NUL3); conditions: Ca2+ mobilization, fluorescent indicator
T1 sequence (Q5NUL3 1-361): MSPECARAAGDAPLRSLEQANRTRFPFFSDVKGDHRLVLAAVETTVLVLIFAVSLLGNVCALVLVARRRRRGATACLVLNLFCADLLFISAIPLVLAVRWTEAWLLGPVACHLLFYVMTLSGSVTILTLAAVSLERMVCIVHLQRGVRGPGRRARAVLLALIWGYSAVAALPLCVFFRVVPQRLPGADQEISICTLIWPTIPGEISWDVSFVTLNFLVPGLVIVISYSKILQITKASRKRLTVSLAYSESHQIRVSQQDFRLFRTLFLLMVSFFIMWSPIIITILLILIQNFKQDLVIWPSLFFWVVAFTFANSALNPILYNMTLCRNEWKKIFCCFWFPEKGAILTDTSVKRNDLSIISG

FFA1 [1] = target: T2, FFA1 (Homo sapiens, UniProt O14842); conditions: Ca2+ mobilization, fluorescent indicator
T2 sequence (O14842 whole entry): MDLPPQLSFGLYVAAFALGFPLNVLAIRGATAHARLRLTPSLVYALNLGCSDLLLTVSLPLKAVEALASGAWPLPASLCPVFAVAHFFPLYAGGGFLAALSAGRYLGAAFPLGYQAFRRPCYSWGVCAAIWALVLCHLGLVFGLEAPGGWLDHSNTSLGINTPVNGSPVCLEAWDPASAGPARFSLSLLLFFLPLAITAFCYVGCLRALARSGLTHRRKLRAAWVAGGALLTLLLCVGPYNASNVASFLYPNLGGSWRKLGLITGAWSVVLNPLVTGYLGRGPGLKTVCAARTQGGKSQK

PPARγ = target: T3, PPARγ (Homo sapiens, UniProt P37231)
T3 sequence (P37231 1-505): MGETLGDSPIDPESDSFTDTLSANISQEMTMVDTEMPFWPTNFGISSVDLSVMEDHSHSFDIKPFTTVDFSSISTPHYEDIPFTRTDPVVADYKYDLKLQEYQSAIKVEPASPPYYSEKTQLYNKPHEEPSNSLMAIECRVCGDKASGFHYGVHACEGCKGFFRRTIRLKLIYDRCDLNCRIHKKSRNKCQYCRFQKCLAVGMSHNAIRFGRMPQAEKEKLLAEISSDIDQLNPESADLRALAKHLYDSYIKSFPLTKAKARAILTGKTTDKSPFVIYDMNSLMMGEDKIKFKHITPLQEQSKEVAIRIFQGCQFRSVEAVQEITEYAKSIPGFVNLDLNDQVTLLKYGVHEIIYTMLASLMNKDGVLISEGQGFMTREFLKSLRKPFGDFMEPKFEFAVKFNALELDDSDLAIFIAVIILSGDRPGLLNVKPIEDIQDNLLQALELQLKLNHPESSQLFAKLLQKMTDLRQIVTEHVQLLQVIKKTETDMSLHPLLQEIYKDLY

PPARδ = target: T4, PPARδ (Homo sapiens, UniProt Q03181)
T4 sequence (Q03181 1-441): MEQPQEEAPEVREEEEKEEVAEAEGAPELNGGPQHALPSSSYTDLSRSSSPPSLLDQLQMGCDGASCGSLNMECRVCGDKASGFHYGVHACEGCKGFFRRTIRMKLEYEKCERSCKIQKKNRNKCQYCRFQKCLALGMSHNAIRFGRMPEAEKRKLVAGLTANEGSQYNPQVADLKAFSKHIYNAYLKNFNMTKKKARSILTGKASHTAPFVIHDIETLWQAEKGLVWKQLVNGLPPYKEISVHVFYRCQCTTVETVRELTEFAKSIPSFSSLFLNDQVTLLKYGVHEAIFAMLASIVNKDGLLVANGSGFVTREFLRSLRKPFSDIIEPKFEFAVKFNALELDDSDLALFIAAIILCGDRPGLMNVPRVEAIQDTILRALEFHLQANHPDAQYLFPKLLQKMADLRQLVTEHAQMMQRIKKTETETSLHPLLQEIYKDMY

PPARα = target: T5, PPARα (Homo sapiens, UniProt Q07869)
T5 sequence (Q07869 1-468): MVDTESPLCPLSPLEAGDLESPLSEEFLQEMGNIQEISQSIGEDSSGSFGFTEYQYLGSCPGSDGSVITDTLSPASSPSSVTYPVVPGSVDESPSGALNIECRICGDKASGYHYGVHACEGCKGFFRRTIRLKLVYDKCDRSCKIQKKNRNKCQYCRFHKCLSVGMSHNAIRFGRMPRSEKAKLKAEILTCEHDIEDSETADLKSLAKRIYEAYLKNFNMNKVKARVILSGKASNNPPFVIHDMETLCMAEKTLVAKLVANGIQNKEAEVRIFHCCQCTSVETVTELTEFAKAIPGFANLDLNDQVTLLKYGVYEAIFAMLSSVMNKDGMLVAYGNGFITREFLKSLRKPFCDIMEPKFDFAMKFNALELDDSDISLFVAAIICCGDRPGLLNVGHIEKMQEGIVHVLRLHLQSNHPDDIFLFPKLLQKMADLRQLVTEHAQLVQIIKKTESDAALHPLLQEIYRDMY

FFA1 [2] = target: T2, FFA1; conditions: footnote a: ERK activation (Smith 2009) or aequorin reporter (Kotarsky 2003)
H+K+ATPase = target: T6, H+K+ATPase (Oryctolagus cuniculus, UniProt P27112); conditions: microsomal membranes from rabbit fundic mucosa; read-out: IC50, inhibition of isolated H+K+ATPase enzyme activity
T6 construct: a preparation of microsomal membranes from rabbit fundic mucosa; from tissue; host or cells: rabbit fundic mucosa, microsomal membranes
T6 sequence (P27112 whole entry): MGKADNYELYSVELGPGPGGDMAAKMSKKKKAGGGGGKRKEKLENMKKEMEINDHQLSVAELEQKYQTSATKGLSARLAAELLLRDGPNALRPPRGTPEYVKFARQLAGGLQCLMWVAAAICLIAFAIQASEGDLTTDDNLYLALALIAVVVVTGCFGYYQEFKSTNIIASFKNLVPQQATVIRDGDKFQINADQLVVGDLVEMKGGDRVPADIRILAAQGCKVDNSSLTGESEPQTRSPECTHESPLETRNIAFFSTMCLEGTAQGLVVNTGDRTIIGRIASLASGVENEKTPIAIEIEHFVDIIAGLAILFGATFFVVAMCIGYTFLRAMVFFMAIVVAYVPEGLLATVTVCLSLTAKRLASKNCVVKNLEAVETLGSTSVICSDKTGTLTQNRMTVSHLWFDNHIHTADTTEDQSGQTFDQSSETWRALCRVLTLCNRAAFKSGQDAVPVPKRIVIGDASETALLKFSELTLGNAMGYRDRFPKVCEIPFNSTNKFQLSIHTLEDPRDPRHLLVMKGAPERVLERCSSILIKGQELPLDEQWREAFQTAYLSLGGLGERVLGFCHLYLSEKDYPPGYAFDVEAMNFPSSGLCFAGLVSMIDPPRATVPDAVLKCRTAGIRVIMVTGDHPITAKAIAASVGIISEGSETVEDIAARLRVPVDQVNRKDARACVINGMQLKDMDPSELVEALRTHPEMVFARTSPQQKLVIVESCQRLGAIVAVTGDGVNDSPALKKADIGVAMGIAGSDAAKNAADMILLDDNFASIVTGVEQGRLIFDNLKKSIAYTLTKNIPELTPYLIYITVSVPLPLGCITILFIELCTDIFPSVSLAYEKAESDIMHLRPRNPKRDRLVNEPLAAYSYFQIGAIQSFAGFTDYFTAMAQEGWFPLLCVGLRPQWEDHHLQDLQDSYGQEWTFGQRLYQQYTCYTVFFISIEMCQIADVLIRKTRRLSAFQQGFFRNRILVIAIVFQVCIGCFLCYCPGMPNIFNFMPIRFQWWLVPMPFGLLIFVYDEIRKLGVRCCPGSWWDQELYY
T6 sequence (P18597 whole entry partner): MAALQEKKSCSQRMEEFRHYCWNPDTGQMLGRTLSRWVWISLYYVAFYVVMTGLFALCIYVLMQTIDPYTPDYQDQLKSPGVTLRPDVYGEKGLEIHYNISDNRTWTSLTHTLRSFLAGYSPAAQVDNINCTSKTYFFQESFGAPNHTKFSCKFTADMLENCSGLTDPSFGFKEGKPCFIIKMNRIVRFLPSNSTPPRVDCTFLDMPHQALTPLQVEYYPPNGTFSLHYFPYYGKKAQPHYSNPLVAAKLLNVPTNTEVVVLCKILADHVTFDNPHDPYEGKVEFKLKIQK

[3] = test system: organic anion transporters (OAT); conditions: at 0.5-1 mM
Aquaporin 4 (AQP4) = conditions: pretreatment, mouse focal cerebral ischemia
FFA1 [4] = target: T2, FFA1; conditions: footnote b: insulin secretion/DMR assay
FFA2 = target: T7, FFA2 (Homo sapiens, UniProt O15552)
T7 sequence (O15552 1-330): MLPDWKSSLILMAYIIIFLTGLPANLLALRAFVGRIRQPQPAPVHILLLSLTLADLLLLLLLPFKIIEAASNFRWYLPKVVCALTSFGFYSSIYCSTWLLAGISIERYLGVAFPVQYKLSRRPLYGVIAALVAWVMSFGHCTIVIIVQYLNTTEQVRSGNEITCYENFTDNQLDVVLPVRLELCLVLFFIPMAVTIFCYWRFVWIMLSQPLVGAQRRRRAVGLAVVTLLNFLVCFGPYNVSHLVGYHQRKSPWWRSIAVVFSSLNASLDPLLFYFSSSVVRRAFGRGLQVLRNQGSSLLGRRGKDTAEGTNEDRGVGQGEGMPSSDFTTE

FFA3 = target: T8, FFA3 (Homo sapiens, UniProt O14843)
T8 sequence (O14843 1-346): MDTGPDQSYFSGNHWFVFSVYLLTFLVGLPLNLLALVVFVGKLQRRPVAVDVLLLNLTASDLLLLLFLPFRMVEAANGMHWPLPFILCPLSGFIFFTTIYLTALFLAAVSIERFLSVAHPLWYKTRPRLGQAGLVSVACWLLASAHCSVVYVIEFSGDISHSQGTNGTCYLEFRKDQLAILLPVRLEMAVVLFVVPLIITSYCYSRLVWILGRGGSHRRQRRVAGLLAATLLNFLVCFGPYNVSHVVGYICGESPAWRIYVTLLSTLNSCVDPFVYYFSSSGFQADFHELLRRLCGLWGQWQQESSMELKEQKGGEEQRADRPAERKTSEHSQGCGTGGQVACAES

KCC2 = target: T9, KCC2 (Homo sapiens, UniProt Q9H2X9)
T9 sequence (Q9H2X9 1-1139): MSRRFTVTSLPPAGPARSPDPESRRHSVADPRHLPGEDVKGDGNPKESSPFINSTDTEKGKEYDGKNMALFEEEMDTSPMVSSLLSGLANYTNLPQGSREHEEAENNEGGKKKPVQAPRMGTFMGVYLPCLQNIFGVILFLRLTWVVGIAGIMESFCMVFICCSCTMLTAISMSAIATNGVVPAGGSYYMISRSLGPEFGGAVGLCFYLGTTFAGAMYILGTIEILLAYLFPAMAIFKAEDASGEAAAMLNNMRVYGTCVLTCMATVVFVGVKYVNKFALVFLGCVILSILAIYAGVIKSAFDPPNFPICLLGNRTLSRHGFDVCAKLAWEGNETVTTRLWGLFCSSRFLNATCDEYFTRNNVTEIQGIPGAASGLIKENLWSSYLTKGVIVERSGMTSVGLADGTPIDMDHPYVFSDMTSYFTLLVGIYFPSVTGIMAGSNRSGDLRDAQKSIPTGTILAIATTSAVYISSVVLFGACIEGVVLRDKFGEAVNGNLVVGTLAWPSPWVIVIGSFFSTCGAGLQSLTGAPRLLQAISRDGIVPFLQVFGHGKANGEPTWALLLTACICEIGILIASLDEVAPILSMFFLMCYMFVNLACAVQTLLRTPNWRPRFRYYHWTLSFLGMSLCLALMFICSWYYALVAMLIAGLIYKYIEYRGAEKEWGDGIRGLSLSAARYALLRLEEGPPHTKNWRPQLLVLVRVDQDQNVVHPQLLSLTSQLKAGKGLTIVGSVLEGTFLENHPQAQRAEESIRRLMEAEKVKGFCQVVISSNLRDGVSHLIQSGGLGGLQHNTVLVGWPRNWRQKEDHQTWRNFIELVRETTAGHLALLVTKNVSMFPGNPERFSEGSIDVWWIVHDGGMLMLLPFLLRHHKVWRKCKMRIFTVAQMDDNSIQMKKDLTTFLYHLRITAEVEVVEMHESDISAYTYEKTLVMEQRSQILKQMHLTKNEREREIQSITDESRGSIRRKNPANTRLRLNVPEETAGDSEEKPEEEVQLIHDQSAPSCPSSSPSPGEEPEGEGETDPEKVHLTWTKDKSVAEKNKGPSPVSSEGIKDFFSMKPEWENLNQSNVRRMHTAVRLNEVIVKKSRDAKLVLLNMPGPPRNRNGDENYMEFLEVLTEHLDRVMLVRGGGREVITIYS

[5] = rats
[6] = in vivo
stellate ganglion = conditions: dog, in vivo

Compound: O=c1c2ccc(O)c(O)c2oc2c(O)c(O)ccc12 [3,4,5,6-Tetrahydroxyxanthone]
affinity of Na/K ATPase pump inhibition (Na/K ATPase): comparable to ouabain

Compound: CC/C=C\C/C=C\C/C=C\C/C=C\C/C=C\C/C=C\CCC(=O)O [DHA (C22:6), DHA]
GPR120 pEC50 (GPR120): 5.4
FFA1 pEC50 (FFA1 [1]): 5.4-6.0

Compound: CN(CCOc1ccc(CC2SC(=O)NC2=O)cc1)c1ccccn1 (centres unmarked) [Rosiglitazone]
FFA1 pEC50 (FFA1 [2]): 5.0-5.6^a

Compound: Cc1ccc(CN(Cc2ccc(-c3ccccc3S(=O)(=O)NC#N)cc2)C(=O)c2ccccc2Cl)cc1 [S0859]
inhibition of Na+-H+ exchange (NHE) (Na+-H+ exchange (NHE)): does not inhibit

Compound: C=C1C[C@@]23CC[C@H]4[C@@](C)(CCC[C@@]4(C)C(=O)O[C@@H]4O[C@H](CO)[C@@H](O)[C@H](O)[C@H]4O)[C@@H]2CC[C@]1(O[C@@H]1O[C@H](CO)[C@@H](O)[C@H](O)[C@H]1O[C@@H]1O[C@H](CO)[C@@H](O)[C@H](O)[C@H]1O)C3 [Stevioside]
interaction with organic anion transporters (OAT) [3]: no interaction
genotoxic effects (cultured mammalian cells): genotoxic effects

Compound: O=C(Nc1nncs1)c1cccnc1 [TGN-020]
volume of brain edema associated with ischemic injury (Aquaporin 4 (AQP4)): significantly reduced

Compound: NGF: nerve growth factor injected into the stellate ganglion of dogs
QTc (stellate ganglion): shortened
QTc interval (stellate ganglion): prolonged
SCD (stellate ganglion): did not cause SCD
risk of SCD (stellate ganglion): 50%

Second part, led by results:

FFA1 pEC50 (FFA1 [1]): 6.6-7.3
pEC50 for PPARγ (PPARγ): 4.9
pEC50 for PPARδ (PPARδ): 4.0
pEC50 for PPARα (PPARα): 4.0
Compound: O=C(O)CCc1ccc(NCc2cccc(Oc3ccccc3)c2)cc1 [GW9508]

GPR120 pEC50 (GPR120): 5.9
FFA1 pEC50 (FFA1 [1]): 4.7
PPARγ agonist activity (PPARγ; at 100 μM): Lacks PPARα, δ, and γ
PPARδ agonist activity (PPARδ; at 100 μM): Lacks PPARα, δ, and γ
PPARα agonist activity (PPARα; at 100 μM): Lacks PPARα, δ, and γ
Compound: O=C(O)CCCc1ccc(OCCN(c2ccccc2)c2ccccn2)cc1 [NCG21 (Cpd 12)]

FFA1 pEC50 (FFA1 [1]): 4.4-5.7
Compound: CCCCCCCC/C=C\CCCCCCCC(=O)O [Oleic acid (C18:1), Oleic acid]

FFA1 pEC50 (FFA1 [1]): 5.2-5.3
Compound: CCCCCCCCCCCCCCCC(=O)O [Palmitic acid (C18:0), Palmitic acid]

IC50 (H+K+ATPase): 200 µM
Compound: Cc1nc2c(OCc3ccccc3)nccn2c1N [SCH 32651]

IC50 (H+K+ATPase): 2.5 µM
Compound: Cc1nc2c(OCc3ccccc3)cccn2c1CC#N [SCH-28080]

FFA1 pEC50 (FFA1 [4]): 7.5^b
Compound: Cc1ccccc1C#Cc1ccc(CCC(=O)O)cc1 [TUG424]
activity at FFA2 (FFA2): No activity at FFA2 and FFA3 reported (TUG424).
activity at FFA3 (FFA3): No activity at FFA2 and FFA3 reported (TUG424).

selectivity for KCC2 over NKCCI (KCC2): selective
Compound: Cc1csc(NC(=O)CSc2ccc(-c3ccccc3)nn2)n1 [VU024055 1]

peripheral sensory axonopathy [6]: causes peripheral sensory axonopathy
Compound: N=C(N)NC(=O)c1cnn(-c2cccc3ncccc23)c1C1CC1 [Zoniporide]
cardiac contractile dysfunction [5]: attenuates
swelling of human platelets (human platelets): inhibits
